We go through 2 molecules from ChEMBL document CHEMBL4041507, “Design, synthesis and biological evaluation of [1,2,4]triazolo[1,5-a]pyrimidines as potent lysine specific demethylase 1 (LSD1/KDM1A) inhibitors” (Eur J Med Chem, 2017).

What is called IC50 is the concentration that gives 50% inhibition. Read a high IC50 as weaker potency in that assay. A word on the inhibition: it is how much of the control response was suppressed. Low values mean little suppression, high ones strong suppression.

The test system of test [1] is ECa-109 cell line. Description: cells. Particulars: Homo sapiens, ECa-109, read-out: GI.
Description: Cytotoxicity against human EC109 cells assessed as growth inhibition at 10 uM by MTT assay relative to control
Test [2] concerns A549. Description: cells. Particulars: Homo sapiens, A549, read-out: GI.
Description: Cytotoxicity against human A549 cells assessed as growth inhibition at 10 uM by MTT assay relative to control
For test [3], the system named is MGC-803. Nature of the test: Anti-migratory activity against human MGC803 cells after 24 hrs by Hoechst 33258 staining based transwell assay. Type of test: functional, cell-based.
The target of test [4] is Lysine-specific histone demethylase 1A (Homo sapiens, UniProt O60341).
Description: Inhibition of recombinant human LSD1 (157 to 852 residues) expressed in Escherichia coli BL21(DE3) using H3K4me2 as substrate preincubated for 1 hr followed by substrate addition by fluorescence assay
For test [5], the system named is MGC-803. Nature of the test: cells. Particulars: Homo sapiens, MGC-803, read-out: GI.
Description: Cytotoxicity against human MGC803 cells assessed as growth inhibition at 10 uM by MTT assay relative to control
Test [6] concerns PC-9. Description: Anti-migratory activity against human PC9 cells after 24 hrs by Hoechst 33258 staining based transwell assay. Type of test: functional, cell-based.
The subject of test [7] is MGC-803. Description: Anti-migratory activity against human MGC803 cells at 10 uM after 24 hrs by Hoechst 33258 staining based transwell assay relative to control. Particulars: MGC-803, 24 h. The format is functional.
Test [8] has as its system PC-9. Description: Increase in E-cadherin expression in human PC9 cells at 5 to 10 uM after 24 hrs by Western blot method. Type of test: functional, cell-based.
The test system of test [9] is MGC-803. Description: Effect on N-cadherin expression in human MGC803 cells at 5 to 10 uM after 24 hrs by Western blot method. Type of test: functional, cell-based.
The test system of test [10] is MGC-803. Description: Effect on E-cadherin expression in human MGC803 cells at 5 to 10 uM after 24 hrs by Western blot method. Type of test: functional, cell-based.
For test [11], the system named is PC-9. Nature of the test: Decrease in N-cadherin expression in human PC9 cells at 5 to 10 uM after 24 hrs by Western blot method. Type of test: functional, cell-based. A general note: A western blot detects proteins with antibodies after separation by electrophoresis.
For test [12], the system named is PC-9. Nature of the test: cells. Particulars: Homo sapiens, PC-9, read-out: GI.
Description: Cytotoxicity against human PC9 cells assessed as growth inhibition at 10 uM by MTT assay relative to control
Test [13] has as its system MGC-803. Nature of the test: cells. Particulars: Homo sapiens.
Description: Cytotoxicity against human MGC803 cells assessed as growth inhibition by MTT assay
In test [14] the test system is PC-9. Nature of the test: Potency index, ratio of 5-fluorouracil IC50 to compound IC50 for human PC9 cells. Type of test: functional.
The subject of test [15] is A549. Description: cells. The note with it: Homo sapiens.
Description: Cytotoxicity against human A549 cells assessed as growth inhibition by MTT assay
The test system of test [16] is ECa-109 cell line. Description: cells. The note with it: Homo sapiens.
Description: Cytotoxicity against human EC109 cells assessed as growth inhibition by MTT assay
In test [17] the test system is PC-9. Nature of the test: cells. The note with it: Homo sapiens.
Description: Cytotoxicity against human PC9 cells assessed as growth inhibition by MTT assay

The structures appear in SMILES notation. Calls of active or inactive are those of the source. The calls are words filed in the database; no cut-off is given here. Where only a bound is given, the exact number is not on record here.

In the case of `Cc1cc(NNC(N)=S)n2nc(SCc3ccccc3)nc2n1`, the inhibition of growth at 10 µM is 14.2% in the test with ECa-109 cell line [1], 25.6% in the test with A549 [2], 2.1% with MGC-803 [5] and 30.7% in the test with PC-9 [12]. Further, the Activity entry in the test with MGC-803 [3] and in the test with PC-9 [6] was “Dose-dependent effect” in each case. The molecule also had an IC50 in test [4] of 154 nM. The molecule also showed an inhibition at 10 µM in the test with MGC-803 [7] of 21%. The outcome in the test on PC-9 [8] and in the test on PC-9 [11] was Active. Further, the result in the test with MGC-803 [9] and in the test with MGC-803 [10] was inactive.

As to `COc1cc(/C=C/C(=O)c2ccc(Nc3cc(C)nc4nc(SCc5nc6ccccc6[nH]5)nn34)cc2)cc(OC)c1OC`, the inhibition of growth at 10 µM is 76.4% with ECa-109 cell line [1], 71.6% in the test with A549 [2], 81.3% in the test on MGC-803 [5] and 93.1% in the test with PC-9 [12]. Further, the IC50 in the test with MGC-803 [13] is 2460 nM; in test [4], > 10000 nM; with A549 [15], 8790 nM; in the test on ECa-109 cell line [16] it was 3230 nM; in the test with PC-9 [17], 570 nM. The “Ratio IC50” value with PC-9 [14] is listed as 4.
